The source of these data is publication PMC2873402, “Discovery of High-Affinity Protein Binding Ligands – Backwards” (PLoS ONE, 2010).

Like-named read-outs stand apart in the source and are kept apart here. Bridge positions count the residues as written; N and C are the ends. Ends that are not written are not given here. I, II: the chains in the order shown. * marks the point of attachment. StBu = CC(C)(C)S*

One test relates to AKT2. Nature of the test: Protein array (ProtoArray), binding to AKT2. The arrangement: species or system human. How it is done:
Synbodies were screened on an Invitrogen ProtoArray™ (Life Technologies, Carlsbad, CA, USA) detected with Alexa-555 labeled streptavidin (Life Technologies), and scanned using a Perkin Elmer ProScan Array HTP. The spots were analyzed using GenePix Pro (Molecular Devices, Sunnyvale, CA, USA) and data were processed using Genespring GX (Agilent Technologies, Santa Clara, CA, USA). Synbodies were labeled with biotin using either Maleimide-PEG2-Biotin (Thermo Pierce, Rockford, IL, USA) to label the C-terminal cysteine or biotin was incorporated during synbody synthesis by replacing the C-terminal cysteine with Lys-biotin (Novabiochem, San Diego, CA, USA). Synbodies were screened on the array using the recommended protocol with the following modifications: the arrays were blocked with 5 mL blocking buffer (50mM HEPES pH 7.5, 200 mM NaCl, 0.08% Triton X-100, 25% Glycerol, 20mM reduced Glutathione, 1.0mM DTT, 1% BSA) for 90 min. A 200 nM synbody solution was incubated in probing buffer (1× PBS, 1% BSA, 0.1% Tween) for 90 minutes. Slides were dried by centrifugation at 200g for 1 minute and scanned at 100% laser power and 70% photomultiplier voltage. The gal file was obtained for each array by submitting the barcode of the array to www.invitrogen.com/protoarray.
Heat maps were constructed using median-normalized data from each ProtoArray. […]

Test [1] deals with T1, AKT1 (Homo sapiens, UniProt P31749). Briefly: SPR determination of Kd / binding kinetics on AKT1. Further details: purchased Life Technologies. The method, then: To a solution of AKT1 (25µg, 4.16×10^−10 moles, 1.0 equiv.) in 50mM Na2CO3 in 150mM NaCl, pH 9.0 (200 µl), was added a solution of NHS-LC-LC-Biotin (Thermo Scientific) (9.4 µl, 8.32×10^−10 moles, 2.0 equiv.) in DMSO. The reaction was kept on ice at 0°C with frequent agitation for 2 hours, before the mixture was transferred to a 10 kDa Millipore Microcon filter and diluted with HBS-N (200 µl). The excess biotin was removed by spinning the filter at 12,000 G until the volume on top of the filter had been reduced to 0.25 the original volume. The retentate was washed with an additional 200 µl of HBS-N and spun for a further 15 minutes. The filter was then flipped over and the protein recovered (15 µg, 60%). After filtration, an appropriate volume of 10× HBS-N was added to the sample to increase the HBS-N concentration to a 1× equivalent.
T1 sequence (P31749 whole entry): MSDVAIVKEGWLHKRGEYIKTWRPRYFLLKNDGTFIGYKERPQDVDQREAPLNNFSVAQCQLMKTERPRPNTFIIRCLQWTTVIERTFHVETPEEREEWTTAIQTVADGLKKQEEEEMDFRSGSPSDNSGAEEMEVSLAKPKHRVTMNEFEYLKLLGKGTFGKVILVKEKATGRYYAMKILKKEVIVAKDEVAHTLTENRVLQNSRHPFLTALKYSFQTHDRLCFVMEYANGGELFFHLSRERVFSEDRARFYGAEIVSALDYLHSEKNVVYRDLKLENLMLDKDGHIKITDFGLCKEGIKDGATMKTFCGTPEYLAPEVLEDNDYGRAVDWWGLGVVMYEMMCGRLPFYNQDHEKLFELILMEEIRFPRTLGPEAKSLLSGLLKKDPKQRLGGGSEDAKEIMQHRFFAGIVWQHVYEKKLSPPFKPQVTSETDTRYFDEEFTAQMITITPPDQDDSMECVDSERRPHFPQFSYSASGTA
Determination of the binding kinetics of the synbody on AKT1 was performed on a Biacore A-100. The series S sensor chip CM5, amine coupling reagents and HBS-EP were obtained from GE Healthcare. A standard amine immobilization protocol was performed at 25°C using NaHCO3 (10mM in 150mM NaCl, pH 4.5) as the immobilization buffer. Spots 1,2 and 3 on each of the four flow cells of the CM-5 dextran chip were activated by a 10 minute injection of a freshly prepared 1∶1 solution of 40 0mM EDC : 100 mM NHS in water. The NHS-carboxy groups of spot 1 of the dextran surface were treated with a solution of neutravidin (50 µg/ml) in sodium acetate (pH 5.0) for 8 mins at a flow rate of 10 µl/min. Any residual active sites were then quenched by a 5 min pulse of ethylene diamine (1M, pH 8.5). Similarly neutravidin was coupled to spots 2 and 3 via a 12 and 16 min injection cycle respectively, followed by quenching. An additionally 7 min injection of ethylene diamine was then pulsed over spots 1–3 to ensure no activated sites remained. […]
For high-resolution kinetics, biotin-tagged AKT1 was captured in multiple spot densities with Rmax's ranging from 20–100 RUs. […] Association and dissociation were monitored for 3 and 16 min, respectively. […]

Test [2] addresses T1, AKT1. Nature of the test: IP of AKT1 from solution, Western Blot. The arrangement: purchased Life Technologies. As to conditions: synbody with C-terminal Lys-Biotin on streptavidin magnetic beads, 89 nM to 0.7 nM AKT1, overnight, 4°C. In kind it is binding. The method, then: The synbody was tested for its ability to bind native protein in solution. A variant of the synbody was prepared in which the C-terminal Cys was replaced with a Lys-Biotin. The synbody was used in an immunoprecipitation (IP) experiment in which it was bound to streptavidin magnetic beads and incubated overnight with 89 nM to 0.7 nM solutions of AKT1. The beads were washed extensively and the bound protein was eluted. Samples were run on a SDS-PAGE gel and detected by Western Blot with an anti-AKT1 monoclonal antibody (Figure 3B).
(§1) For all IP experiments, either a 1 µM or 250 nM solution of biotin-conjugated synbody was captured on 20 µL of streptavidin coated paramagnetic M-280 Dynabeads (Life Technologies) according to the manufacturers protocol. Synbody coated beads were washed five times with 1 mL of 100 mM phosphate buffered saline containing 0.05% Tween-20 (PBST) and incubated overnight at 4°C with shaking in the desired amount of target protein in A549 cell lysate. For Kd determination experiments, serial dilutions of AKT1 or ABL1 were prepared in binding buffer. After binding, beads were washed five times with 1 mL of PBST and heated at 70°C in 20 µL of 1× LDS loading buffer (Invitrogen) for 10 minutes. The samples were analyzed by SDS-PAGE gel with Western Blot detection using the appropriate antibody and imaged on a GE Healthcare Typhoon Trio.

In test [3] the target is T1, AKT1. Nature of the test: IP of AKT isoforms spiked into A549 lysate: AKT1. The test is classed as binding. The arrangement: purchased Life Technologies. As to conditions: 250 ng of each isoform in 500 µg A549 lysate, Western Blot. How it is done: This apparent specificity was investigated further by performing an IP using 250 ng of each isoform of AKT spiked into 500 µg of A-549 cell lysate.
as §1

On to “I: AHKVVPQRQIRHAYNRYGSGKC(StBu)-NH2 / II: FRGWAHIFFGPHVIYRGGSG (amide I:21-II:C) [synbody]”, for which the “binding to AKT2 on protein array” value with AKT2 is given as “little binding”. Moreover, at AKT1 [1] (Biacore A-100, biotin-labeled AKT1 on neutravidin, synbody 25 nM to 0.78 nM, 1:1 binding model, read-out: association rate, ka), the kon is 200000 M⁻¹ s⁻¹. The koff on AKT1 [1] (Biacore A-100, biotin-labeled AKT1 on neutravidin, synbody 25 nM to 0.78 nM, 1:1 binding model, read-out: dissociation rate, kd) was 0.0003 s⁻¹; at AKT1 [1] (Figure 3A, 12.5 and 6.25 nM synbody, Biacore A-100, 1:1 binding model, read-out: koff), 0.000295 s⁻¹. Further, at AKT1 [2], the “IP of AKT1 from solution” value is given as “bound AKT1 from solution”. The “IP of AKT1 (isoform selectivity)” value on AKT1 [3] is on record as “selectively precipitates AKT1”.
